Patent EP4707284A1, “HETEROCYCLIC COMPOUND AND USE THEREOF” (Otsuka Pharmaceutical Co., Ltd., priority 2023, dated 2024)

Tests used:
[1] = type: physicochemical; conditions: Tris-hydrochloric acid buffer (pH 7.5) 50 mmol/L, magnesium chloride 5 mmol/L, evaluation compound 1 µmol/L, 37°C, 60 minutes, average of duplicate
Procedure, shortened: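 Stability in buffer assessed as brexpiprazole formation: duplicate reactions at 37°C, started by adding compound to pre-warmed solution, quenched at 0 or 60 min with internal-standard-containing acetonitrile/isopropanol (4:1). Calibration curves covered 0.01, 0.1 and 1 µmol/L of compound and brexpiprazole.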

[2] = in vitro; type: cell-based, human; conditions: human; 300 µmol/L, about 24 hours, PMA-differentiated HL-60 cells, LDH activity; no-treatment group 0%, cell lysis buffer-treated group 100%; read-out: cytotoxicity (%) Evaluation compound results
Experimental: An HL-60 cell line (human acute promyelocytic leukemia cells) was successively cultured in RPMI 1640 containing 20% fetal bovine serum (FBS) at 37°C in 95% atmosphere/5% CO2. Before evaluation, the cells were pre-cultured for about 72 hours in the presence of 10 nM phorbol 12-myristate 13-acetate (PMA) to induce macrophage-like differentiation.
Evaluation compounds were dissolved in DMSO to obtain 30 mmol/L solutions (or suspensions). Each DMSO solution was diluted 100-fold with RPMI 1640 containing 2% FBS (final concentration of the compound: 300 µmol/L) to obtain a treatment solution. The culture supernatant of the differentiated HL-60 cells was removed, and each treatment solution was added and cultured for about 24 hours, followed by cytotoxicity evaluation.
The activity of lactate dehydrogenase (LDH) was measured in the treatment solutions exposed to the cells for about 24 hours by using a commercial kit (Cytotoxicity LDH Assay Kit-WST, Dojindo Laboratories) and a plate reader (Tecan Infinite M1000). The obtained measurement values were used to calculate cytotoxicity (%) as comparison values for each evaluation compound-treated group, with the no-treatment group taken as 0% and the cell lysis buffer-treated group taken as 100%. The test was conducted in triplicate in three wells each, and the average values were used as adopted values.

SMILES	Concentration of brexpiprazole formed [1] [nM]	Concentration of evaluation compound decreased [1] [nM]	cytotoxicity at 24 h, 300 µM [2] [%]
CC(C)OP(=O)([O-])OC[N+]1(CCCCOc2ccc3ccc(=O)[nH]c3c2)CCN(c2cccc3sccc23)CC1 [EX 5, (4-(benzo[b]thiophen-4-yl)-1-(4-((2-oxo-1,2-dihydroquinolin-7-yl)oxy)butyl)piperazin-1-ium-1-yl)methyl isopropyl phosphate]	0	70	-4
O=c1ccc2ccc(OCCCC[N+]3(COP(=O)([O-])OCCN4CCOCC4)CCN(c4cccc5sccc45)CC3)cc2[nH]1 [EX 14, (4-(benzo[b]thiophen-4-yl)-1-(4-((2-oxo-1,2-dihydroquinolin-7-yl)oxy)butyl)piperazin-1-ium-1-yl)methyl (2-morpholinoethyl)phosphate]	0	80	-10
O=c1ccc2ccc(OCCCC[N+]3(COP(=O)([O-])OCCCO)CCN(c4cccc5sccc45)CC3)cc2[nH]1 [EX 6, (4-(benzo[b]thiophen-4-yl)-1-(4-((2-oxo-1,2-dihydroquinolin-7-yl)oxy)butyl)piperazin-1-ium-1-yl)methyl (3-hydroxypropyl) phosphate]	0	-110	16
CC(C)(C)OP(=O)([O-])OC[N+]1(CCCCOc2ccc3ccc(=O)[nH]c3c2)CCN(c2cccc3sccc23)CC1 [EX 4, (4-(benzo[b]thiophen-4-yl)-1-(4-((2-oxo-1,2-dihydroquinolin-7-yl)oxy)butyl)piperazin-1-ium-1-yl)methyl tert-butyl phosphate]	0	20	-5
O=C(OCOP(=O)([O-])OC[N+]1(CCCCOc2ccc3ccc(=O)[nH]c3c2)CCN(c2cccc3sccc23)CC1)OC1CCCCC1 [EX 19, (4-(benzo[b]thiophen-4-yl)-1-(4-((2-oxo-1,2-dihydroquinolin-7-yl)oxy)butyl)piperazin-1-ium-1-yl)methyl ((((cyclohexyloxy)carbonyl)oxy)methyl)phosphate]	0	-70	16
O=c1ccc2ccc(OCCCC[N+]3(COP(=O)([O-])OCCO)CCN(c4cccc5sccc45)CC3)cc2[nH]1 [EX 9, (4-(benzo[b]thiophen-4-yl)-1-(4-((2-oxo-1,2-dihydroquinolin-7-yl)oxy)butyl)piperazin-1-ium-1-yl)methyl (2-hydroxyethyl)phosphate]	–	–	-2
CC(=O)OCCCOP(=O)([O-])OC[N+]1(CCCCOc2ccc3ccc(=O)[nH]c3c2)CCN(c2cccc3sccc23)CC1 [EX 15, 3-acetoxypropyl ((4-(benzo[b]thiophen-4-yl)-1-(4-((2-oxo-1,2-dihydroquinolin-7-yl)oxy)butyl)piperazin-1-ium-1-yl)methyl)phosphate]	0	0	3
O=C(OCOP(=O)([O-])OC[N+]1(CCCCOc2ccc3ccc(=O)[nH]c3c2)CCN(c2cccc3sccc23)CC1)C1CCCCC1 [EX 18, (4-(benzo[b]thiophen-4-yl)-1-(4-((2-oxo-1,2-dihydroquinolin-7-yl)oxy)butyl)piperazin-1-ium-1-yl)methyl (((cyclohexanecarbonyl)oxy)methyl)phosphate]	0	-10	8
CC(C)OCCOP(=O)([O-])OC[N+]1(CCCCOc2ccc3ccc(=O)[nH]c3c2)CCN(c2cccc3sccc23)CC1 [EX 13, (4-(benzo[b]thiophen-4-yl)-1-(4-((2-oxo-1,2-dihydroquinolin-7-yl)oxy)butyl)piperazin-1-ium-1-yl)methyl (2-isopropoxyethyl)phosphate]	0	30	-5
CCOC(=O)COP(=O)([O-])OC[N+]1(CCCCOc2ccc3ccc(=O)[nH]c3c2)CCN(c2cccc3sccc23)CC1 [EX 8, (4-(benzo[b]thiophen-4-yl)-1-(4-((2-oxo-1,2-dihydroquinolin-7-yl)oxy)butyl)piperazin-1-ium-1-yl)methyl (2-ethoxy-2-oxoethyl)phosphate]	10	70	15
COCCOCCOP(=O)([O-])OC[N+]1(CCCCOc2ccc3ccc(=O)[nH]c3c2)CCN(c2cccc3sccc23)CC1 [EX 7, (4-(benzo[b]thiophen-4-yl)-1-(4-((2-oxo-1,2-dihydroquinolin-7-yl)oxy)butyl)piperazin-1-ium-1-yl)methyl (2-(2-methoxyethoxy)ethyl)phosphate]	0	-60	-4
CCCCCC(=O)OCOP(=O)([O-])OC[N+]1(CCCCOc2ccc3ccc(=O)[nH]c3c2)CCN(c2cccc3sccc23)CC1 [EX 16, (4-(benzo[b]thiophen-4-yl)-1-(4-((2-oxo-1,2-dihydroquinolin-7-yl)oxy)butyl)piperazin-1-ium-1-yl)methyl ((hexanoyloxy)methyl)phosphate]	0	10	17
CCOP(=O)([O-])OC[N+]1(CCCCOc2ccc3ccc(=O)[nH]c3c2)CCN(c2cccc3sccc23)CC1 [EX 3, (4-(benzo[b]thiophen-4-yl)-1-(4-((2-oxo-1,2-dihydroquinolin-7-yl)oxy)butyl)piperazin-1-ium-1-yl)methyl ethyl phosphate]	0	10	-7
CC1(C)OCC(COP(=O)([O-])OC[N+]2(CCCCOc3ccc4ccc(=O)[nH]c4c3)CCN(c3cccc4sccc34)CC2)CO1 [EX 55]	0	70	–

Now from value to molecule, other results behind:

Concentration of brexpiprazole formed [1] [nM]	Concentration of evaluation compound decreased [1] [nM]	SMILES	cytotoxicity at 24 h, 300 µM [2] [%]
0	90	CCOC(=O)CCCC(=O)OCOP(=O)([O-])OC[N+]1(CCCCOc2ccc3ccc(=O)[nH]c3c2)CCN(c2cccc3sccc23)CC1 [EX 68]	-6
0	0	CCCCOCCOCCOP(=O)([O-])OC[N+]1(CCCCOc2ccc3ccc(=O)[nH]c3c2)CCN(c2cccc3sccc23)CC1 [EX 99]	-6
0	200	CCOC(=O)[C@H](C)OP(=O)([O-])OC[N+]1(CCCCOc2ccc3ccc(=O)[nH]c3c2)CCN(c2cccc3sccc23)CC1 [EX 104]	–
0	110	O=C(OCCCN1CCOCC1)OCOP(=O)([O-])OC[N+]1(CCCCOc2ccc3ccc(=O)[nH]c3c2)CCN(c2cccc3sccc23)CC1 [EX 146]	–
0	170	CC(=O)Oc1ccccc1C(=O)OCOP(=O)([O-])OC[N+]1(CCCCOc2ccc3ccc(=O)[nH]c3c2)CCN(c2cccc3sccc23)CC1 [EX 80]	–
0	90	CC(C)OCCOCCOCCOC(=O)OCOP(=O)([O-])OC[N+]1(CCCCOc2ccc3ccc(=O)[nH]c3c2)CCN(c2cccc3sccc23)CC1 [EX 137]	–
0	40	COCC(COC)OP(=O)([O-])OC[N+]1(CCCCOc2ccc3ccc(=O)[nH]c3c2)CCN(c2cccc3sccc23)CC1 [EX 56]	–
0	70	C[C@@H](OP(=O)([O-])OC[N+]1(CCCCOc2ccc3ccc(=O)[nH]c3c2)CCN(c2cccc3sccc23)CC1)C(=O)OC(C)(C)C [EX 106]	–
0	100	O=C(OCOP(=O)([O-])OC[N+]1(CCCCOc2ccc3ccc(=O)[nH]c3c2)CCN(c2cccc3sccc23)CC1)C12CC3CC(CC(C3)C1)C2 [EX 124]	–
0	160	O=C(CCCCCO)OCOP(=O)([O-])OC[N+]1(CCCCOc2ccc3ccc(=O)[nH]c3c2)CCN(c2cccc3sccc23)CC1 [EX 126]	–
0	-10	CCOC(=O)[C@@H](C)OP(=O)([O-])OC[N+]1(CCCCOc2ccc3ccc(=O)[nH]c3c2)CCN(c2cccc3sccc23)CC1 [EX 103]	–
